The target in this test is T1, BRM (Homo sapiens, UniProt P51531).
T1 construct: Western Blot Screen of BRM Degradation in SW1573 Cells; endogenous in cells; host or cells: SW1573 cells
Briefly: BRM degradation (Dmax and DC50) in SW1573 cells, Western blot screen / In-Cell Western screen. It counts as cell-based. To be noted: overnight (18-20 hours) treatment; for Dmax: read-out: Dmax (%)** (% degraded). Summed up:
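Dmax and DC50 were derived from BRM levels normalised to an alpha-tubulin control, measured by chemiluminescent Western blotting of lysates or by PFA-fixed In-Cell Western on LI-COR Odyssey. SW1573 cells received compound overnight (18–20 h, 0.1% DMSO final).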

The structures appear in SMILES notation.

T1 sequence (P51531 whole entry): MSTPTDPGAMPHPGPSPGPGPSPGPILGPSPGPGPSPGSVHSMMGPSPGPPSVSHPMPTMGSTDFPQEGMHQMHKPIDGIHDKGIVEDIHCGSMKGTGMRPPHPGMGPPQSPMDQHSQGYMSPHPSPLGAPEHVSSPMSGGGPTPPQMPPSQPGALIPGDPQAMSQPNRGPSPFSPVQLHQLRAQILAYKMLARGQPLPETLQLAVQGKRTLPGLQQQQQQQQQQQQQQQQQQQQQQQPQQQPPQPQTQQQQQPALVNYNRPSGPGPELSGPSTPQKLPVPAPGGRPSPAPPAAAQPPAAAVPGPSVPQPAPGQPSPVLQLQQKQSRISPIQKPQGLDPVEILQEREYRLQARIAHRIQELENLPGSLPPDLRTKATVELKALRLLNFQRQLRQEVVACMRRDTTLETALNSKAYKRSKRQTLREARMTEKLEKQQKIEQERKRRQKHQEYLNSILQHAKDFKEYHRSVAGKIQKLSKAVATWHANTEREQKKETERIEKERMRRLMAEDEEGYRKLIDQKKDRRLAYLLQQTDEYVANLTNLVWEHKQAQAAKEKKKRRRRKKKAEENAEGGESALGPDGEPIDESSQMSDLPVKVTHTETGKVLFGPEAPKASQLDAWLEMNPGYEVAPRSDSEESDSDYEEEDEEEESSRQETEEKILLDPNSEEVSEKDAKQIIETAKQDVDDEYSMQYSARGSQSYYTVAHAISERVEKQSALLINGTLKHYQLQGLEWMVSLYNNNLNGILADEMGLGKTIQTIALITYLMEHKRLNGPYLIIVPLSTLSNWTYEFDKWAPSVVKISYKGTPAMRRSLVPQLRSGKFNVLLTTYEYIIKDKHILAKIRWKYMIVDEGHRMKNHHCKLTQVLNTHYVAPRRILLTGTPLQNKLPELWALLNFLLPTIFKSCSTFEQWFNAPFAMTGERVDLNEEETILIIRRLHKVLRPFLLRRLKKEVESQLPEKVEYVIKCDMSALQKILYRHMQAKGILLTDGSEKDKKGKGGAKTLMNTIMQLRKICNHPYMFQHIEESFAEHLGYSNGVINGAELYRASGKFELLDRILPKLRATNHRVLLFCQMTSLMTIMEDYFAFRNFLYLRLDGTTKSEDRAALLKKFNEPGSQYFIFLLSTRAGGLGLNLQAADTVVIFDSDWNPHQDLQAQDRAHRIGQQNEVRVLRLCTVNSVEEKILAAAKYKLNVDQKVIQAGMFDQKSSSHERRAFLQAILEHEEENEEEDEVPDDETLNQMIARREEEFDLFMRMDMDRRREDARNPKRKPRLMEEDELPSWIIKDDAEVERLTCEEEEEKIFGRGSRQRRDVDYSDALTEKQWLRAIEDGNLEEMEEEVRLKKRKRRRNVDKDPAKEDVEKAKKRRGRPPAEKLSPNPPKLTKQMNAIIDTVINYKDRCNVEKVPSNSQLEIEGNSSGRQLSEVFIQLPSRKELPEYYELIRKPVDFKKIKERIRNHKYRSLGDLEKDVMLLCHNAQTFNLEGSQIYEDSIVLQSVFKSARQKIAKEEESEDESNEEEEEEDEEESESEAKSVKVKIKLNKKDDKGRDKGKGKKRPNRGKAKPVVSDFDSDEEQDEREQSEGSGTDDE

For `CC(C)[C@@H](C(=O)N1C[C@H](O)C[C@H]1C(=O)N[C@@H](C)c1ccc(-c2ccnn2C)cc1)c1cc(N2CCC(OC3CCN(CC4CC(N5CCC([C@@H](C)n6cc(C#Cc7cc(-c8ccccc8O)nnc7N)cn6)CC5)C4)CC3)CC2)no1` (stereo partly drawn) [Compound 110, (2S,4R)-1-[(2R)-2-{3-[4-({1-[(3-{4-[(1R)-1-(4-{2-[3-amino-6-(2-hydroxyphenyl)pyridazin-4-yl]ethynyl}-1H-pyrazol-1-yl)ethyl]piperidin-1-yl}cyclobutyl)methyl]piperidin-4-yl}oxy)piperidin-1-yl]-1,2-oxazol-5-yl}-3-methylbutanoyl]-4-hydroxy-N-[(1S)-1-[4-(1-methyl-1H-pyrazol-5-yl)phenyl]ethyl]pyrrolidine-2-carboxamide], the 50% degradation concentration (DC50) (in general, the concentration at which degradation of the target reaches its halfway point) is less than 2.5 nM and the Dmax – broadly, the greatest extent of degradation seen – was greater than 75%. `CC(C)[C@H](C(=O)N1C[C@H](O)C[C@H]1C(=O)N[C@@H](C)c1ccc(-c2ccnn2C)cc1)c1cc(N2CCC(OC3CCN(CC4CC(N5CCC([C@H](C)n6cc(C#Cc7cc(-c8ccccc8O)nnc7N)cn6)CC5)C4)CC3)CC2)no1` (stereo partly drawn) [Compound 111, (2S,4R)-1-[(2S)-2-{3-[4-({1-[(3-{4-[(1S)-1-(4-{2-[3-amino-6-(2-hydroxyphenyl)pyridazin-4-yl]ethynyl}-1H-pyrazol-1-yl)ethyl]piperidin-1-yl}cyclobutyl)methyl]piperidin-4-yl}oxy)piperidin-1-yl]-1,2-oxazol-5-yl}-3-methylbutanoyl]-4-hydroxy-N-[(1S)-1-[4-(1-methyl-1H-pyrazol-5-yl)phenyl]ethyl]pyrrolidine-2-carboxamide] gave a DC50 of no less than 30 nM. Turning to `CC(C)[C@@H](C(=O)N1C[C@H](O)C[C@H]1C(=O)N[C@@H](C)c1ccc(-c2ccnn2C)cc1)c1cc(N2CCC(OC3CCN(CC4CC(N5CCC([C@H](C)n6cc(C#Cc7cc(-c8ccccc8O)nnc7N)cn6)CC5)C4)CC3)CC2)no1` (stereo partly drawn) [Compound 112, (2S,4R)-1-[(2R)-2-{3-[4-({1-[(3-{4-[(1S)-1-(4-{2-[3-amino-6-(2-hydroxyphenyl)pyridazin-4-yl]ethynyl}-1H-pyrazol-1-yl)ethyl]piperidin-1-yl}cyclobutyl)methyl]piperidin-4-yl}oxy)piperidin-1-yl]-1,2-oxazol-5-yl}-3-methylbutanoyl]-4-hydroxy-N-[(1S)-1-[4-(1-methyl-1H-pyrazol-5-yl)phenyl]ethyl]pyrrolidine-2-carboxamide], the half-maximal degradation concentration (DC50) is less than 2.5 nM and the Dmax was greater than 75%. For `Cc1ncsc1-c1ccc([C@H](C)NC(=O)[C@@H]2C[C@@H](O)CN2C(=O)[C@@H](c2cc(N3CCC(CN4CCC5(CC4)CC(N4CCO[C@@H](CNC6CCN(c7cc(-c8ccccc8O)nnc7N)CC6)C4)C5)CC3)no2)C(C)C)cc1` [Compound 113, (2S,4R)-1-[(2R)-2-{3-[4-({2-[(2S)-2-[({1-[3-amino-6-(2-hydroxyphenyl)pyridazin-4-yl]piperidin-4-yl}amino)methyl]morpholin-4-yl]-7-azaspiro[3.5]nonan-7-yl}methyl)piperidin-1-yl]-1,2-oxazol-5-yl}-3-methylbutanoyl]-4-hydroxy-N-[(1S)-1-[4-(4-methyl-1,3-thiazol-5-yl)phenyl]ethyl]pyrrolidine-2-carboxamide] the same measures were less than 2.5 nM and greater than 75%. Compound `CC(C)[C@H](C(=O)N1C[C@H](O)C[C@H]1C(=O)N[C@@H](C)c1ccc(-c2ccnn2C)cc1)c1cc(N2CCC(CN3CCC(O[C@H]4C[C@H](OC(=O)N5CCN(c6cc(-c7ccccc7O)nnc6N)CC5)C4)CC3)CC2)no1` [Compound 114, (1r,3r)-3-({1-[(1-{5-[(2S)-1-[(2S,4R)-4-hydroxy-2-{[(1S)-1-[4-(1-methyl-1H-pyrazol-5-yl)phenyl]ethyl]carbamoyl}pyrrolidin-1-yl]-3-methyl-1-oxobutan-2-yl]-1,2-oxazol-3-yl}piperidin-4-yl)methyl]piperidin-4-yl}oxy)cyclobutyl 4-[3-amino-6-(2-hydroxyphenyl)pyridazin-4-yl]piperazine-1-carboxylate] registered a DC50 of no less than 30 nM. For the compound `CC(C)[C@@H](C(=O)N1C[C@H](O)C[C@H]1C(=O)N[C@@H](C)c1ccc(-c2ccnn2C)cc1)c1cc(N2CCC(CN3CCC(O[C@H]4C[C@H](OC(=O)N5CCN(c6cc(-c7ccccc7O)nnc6N)CC5)C4)CC3)CC2)no1` [Compound 115, (1r,3r)-3-({1-[(1-{5-[(2R)-1-[(2S,4R)-4-hydroxy-2-{[(1S)-1-[4-(1-methyl-1H-pyrazol-5-yl)phenyl]ethyl]carbamoyl}pyrrolidin-1-yl]-3-methyl-1-oxobutan-2-yl]-1,2-oxazol-3-yl}piperidin-4-yl)methyl]piperidin-4-yl}oxy)cyclobutyl 4-[3-amino-6-(2-hydroxyphenyl)pyridazin-4-yl]piperazine-1-carboxylate], the half-maximal degradation concentration (DC50) is no less than 30 nM. Consider `Cc1ncsc1-c1ccc([C@H](C)NC(=O)[C@@H]2C[C@@H](O)CN2C(=O)[C@H](c2cc(N3CCC(OC(=O)N4CCC(O[C@H]5C[C@H](Oc6cc(N7C8CCC7CN(c7cc(-c9ccccc9O)nnc7N)C8)ccn6)C5)CC4)CC3)no2)C(C)C)cc1` [Compound 116, 1-{5-[(2S)-1-[(2S,4R)-4-hydroxy-2-([(1S)-1-[4-(4-methyl-1,3-thiazol-5-yl)phenyl]ethyl]carbamoyl}pyrrolidin-1-yl]-3-methyl-1-oxobutan-2-yl]-1,2-oxazol-3-yl}piperidin-4-yl 4-[(1r,3r)-3-[(4-{3-[3-amino-6-(2-hydroxyphenyl)pyridazin-4-yl]-3,8-diazabicyclo[3.2.1]octan-8-yl}pyridin-2-yl)oxy]cyclobutoxy]piperidine-1-carboxylate], for which the 50% degradation concentration (DC50) is less than 2.5 nM and the Dmax was greater than 75%. For `Cc1ncsc1-c1ccc([C@H](C)NC(=O)[C@@H]2C[C@@H](O)CN2C(=O)[C@@H](c2cc(N3CCC(OC(=O)N4CCC(O[C@H]5C[C@H](Oc6cc(N7C8CCC7CN(c7cc(-c9ccccc9O)nnc7N)C8)ccn6)C5)CC4)CC3)no2)C(C)C)cc1` [Compound 117, 1-{5-[(2R)-1-[(2S,4R)-4-hydroxy-2-{[(1S)-1-[4-(4-methyl-1,3-thiazol-5-yl)phenyl]ethyl]carbamoyl}pyrrolidin-1-yl]-3-methyl-1-oxobutan-2-yl]-1,2-oxazol-3-yl}piperidin-4-yl 4-[(1r,3r)-3-[(4-{3-[3-amino-6-(2-hydroxyphenyl)pyridazin-4-yl]-3,8-diazabicyclo[3.2.1]octan-8-yl}pyridin-2-yl)oxy]cyclobutoxy]piperidine-1-carboxylate] the same measures were less than 2.5 nM and greater than 75%. With `Cc1ncsc1-c1ccc([C@H](C)NC(=O)[C@@H]2C[C@@H](O)CN2C(=O)[C@H](c2cc(N3CCN(C(=O)[C@H]4C[C@H](Oc5cc(N6C7CCC6CN(c6cc(-c8ccccc8O)nnc6N)C7)ccn5)C4)CC3)no2)C(C)C)cc1` [Compound 118, (2S,4R)-4-hydroxy-N-[(1S)-1-[4-(4-methyl-1,3-thiazol-5-yl)phenyl]ethyl]-1-[(2S)-3-methyl-2-(3-{4-[(1r,3r)-3-[(4-{3-[3-amino-6-(2-hydroxyphenyl)pyridazin-4-yl]-3,8-diazabicyclo[3.2.1]octan-8-yl}pyridin-2-yl)oxy]cyclobutanecarbonyl]piperazin-1-yl}-1,2-oxazol-5-yl)butanoyl]pyrrolidine-2-carboxamide], the half-maximal degradation concentration (DC50) is less than 2.5 nM and the Dmax was greater than 75%.

Regarding `Cc1ncsc1-c1ccc([C@H](C)NC(=O)[C@@H]2C[C@@H](O)CN2C(=O)[C@@H](c2cc(N3CCC(CN4CCC5(CC4)CC(N4CCO[C@@H](CN6C7CCC6CN(c6cc(-c8ccccc8O)nnc6N)C7)C4)C5)CC3)no2)C(C)C)cc1` [Compound 119, (2S,4R)-1-[(2R)-2-{3-[4-({2-[(2R)-2-({3-[3-amino-6-(2-hydroxyphenyl)pyridazin-4-yl]-3,8-diazabicyclo[3.2.1]octan-8-yl}methyl)morpholin-4-yl]-7-azaspiro[3.5]nonan-7-yl}methyl)piperidin-1-yl]-1,2-oxazol-5-yl}-3-methylbutanoyl]-4-hydroxy-N-[(1S)-1-[4-(4-methyl-1,3-thiazol-5-yl)phenyl]ethyl]pyrrolidine-2-carboxamide], the DC50 is less than 2.5 nM and the Dmax was greater than 75%. For `Cc1ncsc1-c1ccc([C@H](C)NC(=O)[C@@H]2C[C@@H](O)CN2C(=O)[C@@H](c2cc(N3CCC(CN4CCC5(CC4)CC(N4CCC(F)(F)C(CN6C7CCC6CN(c6cc(-c8ccccc8O)nnc6N)C7)C4)C5)CC3)no2)C(C)C)cc1` (stereo partly drawn) [Compound 120, (2S,4R)-1-[(2R)-2-{3-[4-({2-[3-({3-[3-amino-6-(2-hydroxyphenyl)pyridazin-4-yl]-3,8-diazabicyclo[3.2.1]octan-8-yl}methyl)-4,4-difluoropiperidin-1-yl]-7-azaspiro[3.5]nonan-7-yl}methyl)piperidin-1-yl]-1,2-oxazol-5-yl}-3-methylbutanoyl]-4-hydroxy-N-[(1S)-1-[4-(4-methyl-1,3-thiazol-5-yl)phenyl]ethyl]pyrrolidine-2-carboxamide] the same measures were less than 2.5 nM and greater than 75%. As to `Cc1ncsc1-c1ccc([C@H](C)NC(=O)[C@@H]2C[C@@H](O)CN2C(=O)[C@@H](c2cc(N3CCC(CN4CCC5(CC4)CC(N4CCO[C@@H](C#CC(C)n6cc(-c7cc(-c8ccccc8O)nnc7N)cn6)C4)C5)CC3)no2)C(C)C)cc1` (stereo partly drawn) [Compound 121, (2S,4R)-1-[(2R)-2-{3-[4-({2-[(2S)-2-(3-{4-[3-amino-6-(2-hydroxyphenyl)pyridazin-4-yl]-1H-pyrazol-1-yl}but-1-yn-1-yl)morpholin-4-yl]-7-azaspiro[3.5]nonan-7-yl}methyl)piperidin-1-yl]-1,2-oxazol-5-yl}-3-methylbutanoyl]-4-hydroxy-N-[(1S)-1-[4-(4-methyl-1,3-thiazol-5-yl)phenyl]ethyl]pyrrolidine-2-carboxamide], the DC50 is less than 2.5 nM and the Dmax is greater than 75%.

Source of the values: patent US20250059198A1, “BRM DEGRADING COMPOUNDS AND ASSOCIATED METHODS OF USE” (Arvinas Operations, Inc., priority 2021, published 2025).
